Laboratory results as given in patent US20050239656A1, “Pyridine compounds or salts thereof and herbicides containing the same” (priority 2002, published 2005).

These compounds were tested on barnyardgrass (assay: Test Example 1: foliage treatment, upland pot test). Details: active ingredient 500 g/ha, observed 18th to 23rd day, 0 = non-treated, 100 = complete kill.
Assay type: in vivo, Echinochloa crus-galli L.
In short: (§1)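 Each plant species was sprayed once on its foliage, with wheat at 1.3–2.4, soybean at 0.1–0.4, barnyardgrass at 1.3–2.8 and rice at 1.2–2.6 leaves. Visual ratings of growth inhibition, 0 to 100%, followed 18–23 days later.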
CC(C)C(c1cnccc1C(F)(F)F)N(C)C(=O)Cc1csc2ccccc12 (centres unmarked) [I-192] was tested, and the “Growth controlling degree (%) Barnyardgrass” value was 80%.

These compounds were tested on green foxtail (assay: Test Example 1: foliage treatment, upland pot test). Details: active ingredient 500 g/ha, observed 18th to 23rd day, 0 = non-treated, 100 = complete kill.
Assay type: in vivo, Setaria viridis L.
CC(C)C(c1cnccc1C(F)(F)F)N(C)C(=O)Cc1csc2ccccc12 (centres unmarked) [I-192] was tested, and the “Growth controlling degree (%) Green foxtail” value was 60%.

The compounds below were run on japanese bulrush (assay: Test Example 3: paddy pot test, application under submerged conditions). Details: active ingredient 500 g/ha; submerged application at 0.5 leaf stage; visually observed 14 days after application; 0 = non-treated, 100 = complete kill.
Assay type: in vivo, Scirpus juncoides
In short: (§2)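 Seeds were sown in flooded paddy soil (0.5–1 cm water), wapato tubers were planted 1–2 days later, and water was then held at 3–4 cm. Diluted wettable powder or emulsifiable concentrate was pipetted into the water at the 0.5 leaf or primary leaf stage. Growth control was visually scored at 14 days (0–100%).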
In the case of CC(C)C(c1cnccc1C(F)(F)F)N(C)C(=O)Cc1csc2ccccc12 (centres unmarked) [I-192], the “Growth controlling degree (%) Japanese bulrush” value is reported as 90%.

These compounds were tested on barnyardgrass (assay: Test Example 2: soil surface treatment, upland pot test). Details: active ingredient 500 g/ha, observed 20th to 28th day.
Assay type: in vivo, Echinochloa crus-galli L.
In short: (§3)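 Upland soil in pots of 1/170,000 ha is sown; on day 1 after sowing the formulated compound (wettable powder or emulsifiable concentrate, predetermined a.i. amount, water volume 1,500 L/ha) is applied to the soil surface with a small sprayer. Percent control is judged by eye 20–28 days later.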
With CC(C)C(c1cnccc1C(F)(F)F)N(C)C(=O)Cc1csc2ccccc12 (centres unmarked) [I-192] the “Growth controlling degree (%) Barnyardgrass” value was 98%.

These compounds were tested on wheat (assay: Test Example 1: foliage treatment, upland pot test). Details: crop, active ingredient 500 g/ha, observed 18th to 23rd day, 0 = non-treated, 100 = complete kill.
Assay type: in vivo, Triticum spp.
Source text: Upland field soil was put into a 1/170,000 ha pot, and seed of various plants were sown. Then, when the plants reached predetermined leaf stages ((1) barnyardgrass: 1.3 to 2.8 leaf stages, (2) crabgrass: 1.0 to 2.8 leaf stages, (3) green foxtail: 1.3 to 2.6 leaf stages, (4) redroot pigweed: 0.1 to 1.2 leaf stages, (5) prickly sida: 0.1 to 1.2 leaf stages, (6) velvetleaf: 0.1 to 1.2 leaf stages, (7) tall morningglory: 0.1 to 1.5 leaf stages, (8) rice: 1.2 to 2.6 leaf stages, (9) wheat: 1.3 to 2.4 leaf stages, (10) corn, 2.1 to 3.2 leaf stages, (11) soybean: 0.1 to 0.4 leaf stage), a wettable powder or emulsifiable concentrate having the compound of the present invention formulated in accordance with a usual formulation method, was weighed so that the active ingredient would be a predetermined amount, and diluted with water in an amount of 500 L/ha. To the diluted solution, 0.1% (v/v) of agricultural spreader was added. The herbicide thus adjusted was applied by a small size sprayer for foliage treatment. On the 18th to 23rd days after the application of the herbicide, the growth of the respective plants was visually observed, and the herbicidal effects were evaluated by the growth controlling degrees (%) ranging from 0 (equivalent to the non-treated plot) to 100 (complete kill), whereby the results shown in Table 3, were obtained.
For CC(C)C(c1cnccc1C(F)(F)F)N(C)C(=O)Cc1csc2ccccc12 (centres unmarked) [I-192], the “Growth controlling degree (%) wheat” value was 0%.

What follows are compounds tested on prickly sida (assay: Test Example 1: foliage treatment, upland pot test). Details: active ingredient 500 g/ha, observed 18th to 23rd day, 0 = non-treated, 100 = complete kill.
Assay type: in vivo, Sida spinosa L.
CC(C)C(c1cnccc1C(F)(F)F)N(C)C(=O)Cc1csc2ccccc12 (centres unmarked) [I-192] was tested, and the “Growth controlling degree (%) Prickly sida” value was 90%.

Each compound was assayed on rice (var. Nihonbare) (assay: Test Example 3: paddy pot test, transplanted rice). Details: active ingredient 500 g/ha, applied 4th day after transplantation, visually observed 21st day after application, 0 = non-treated, 100 = complete kill.
Assay type: in vivo, Oryza sativa L.
In short: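 Rice (2-leaf stage) was transplanted 3 cm deep into puddled, leveled paddy soil under 3–4 cm flooding. On day 4 after transplanting, diluted wettable powder or emulsifiable concentrate was pipetted onto the water at a predetermined active-ingredient dose. Growth control (0 = untreated, 100 = complete kill) was scored visually 21 days later.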
With CC(C)C(c1cnccc1C(F)(F)F)N(C)C(=O)Cc1csc2ccccc12 (centres unmarked) [I-192] the “Growth controlling degree (%) Rice” value was 30%.

Each compound was assayed on rice (assay: Test Example 2: soil surface treatment, upland pot test). Details: active ingredient 500 g/ha, observed 20th to 28th day.
Assay type: in vivo, Oryza sativa L.
In short: as §3
In the case of CC(C)C(c1cnccc1C(F)(F)F)N(C)C(=O)Cc1csc2ccccc12 (centres unmarked) [I-192], the “Growth controlling degree (%) Rice” value is reported as 10%.

What follows are compounds tested on soybean (assay: Test Example 1: foliage treatment, upland pot test). Details: crop, active ingredient 500 g/ha, observed 18th to 23rd day, 0 = non-treated, 100 = complete kill.
Assay type: in vivo, Glycine max Merr.
In short: as §1
In the case of CC(C)C(c1cnccc1C(F)(F)F)N(C)C(=O)Cc1csc2ccccc12 (centres unmarked) [I-192], the “Growth controlling degree (%) Soybean” value is reported as 80%.

The compounds below were run on crabgrass (assay: Test Example 2: soil surface treatment, upland pot test). Details: active ingredient 500 g/ha, observed 20th to 28th day.
Assay type: in vivo, Digitaria sanguinalis L.
In short: as §3
CC(C)C(c1cnccc1C(F)(F)F)N(C)C(=O)Cc1csc2ccccc12 (centres unmarked) [I-192] was tested, and the “Growth controlling degree (%) Crabgrass” value was 80%.

The compounds below were run on redroot pigweed in the same assay as above. Details: active ingredient 500 g/ha, observed 20th to 28th day.
Assay type: in vivo, Amaranthus retroflexus L.
In short: as §3
CC(C)C(c1cnccc1C(F)(F)F)N(C)C(=O)Cc1csc2ccccc12 (centres unmarked) [I-192] was tested, and the “Growth controlling degree (%) Redroot pigweed” value was 10%.

What follows are compounds tested on prickly sida in the same assay as above. Details: active ingredient 500 g/ha, observed 20th to 28th day.
Assay type: in vivo, Sida spinosa L.
In short: as §3
In the case of CC(C)C(c1cnccc1C(F)(F)F)N(C)C(=O)Cc1csc2ccccc12 (centres unmarked) [I-192], the “Growth controlling degree (%) Prickly sida” value is reported as 0%.

The compounds below were run on redroot pigweed (assay: Test Example 1: foliage treatment, upland pot test). Details: active ingredient 500 g/ha, observed 18th to 23rd day, 0 = non-treated, 100 = complete kill.
Assay type: in vivo, Amaranthus retroflexus L.
CC(C)C(c1cnccc1C(F)(F)F)N(C)C(=O)Cc1csc2ccccc12 (centres unmarked) [I-192] was tested, and the “Growth controlling degree (%) Redroot pigweed” value was 80%.

Each compound was assayed on green foxtail (assay: Test Example 2: soil surface treatment, upland pot test). Details: active ingredient 500 g/ha, observed 20th to 28th day.
Assay type: in vivo, Setaria viridis L.
In short: as §3
In the case of CC(C)C(c1cnccc1C(F)(F)F)N(C)C(=O)Cc1csc2ccccc12 (centres unmarked) [I-192], the “Growth controlling degree (%) Green foxtail” value is reported as 80%.

Each compound was assayed on corn in the same assay as above. Details: active ingredient 500 g/ha, observed 20th to 28th day.
Assay type: in vivo, Zea mays L.
In short: as §3
With CC(C)C(c1cnccc1C(F)(F)F)N(C)C(=O)Cc1csc2ccccc12 (centres unmarked) [I-192] the “Growth controlling degree (%) Corn” value was 10%.

What follows are compounds tested on velvetleaf in the same assay as above. Details: active ingredient 500 g/ha, observed 20th to 28th day.
Assay type: in vivo, Abutilon theophrasti MEDIC.
In short: as §3
For CC(C)C(c1cnccc1C(F)(F)F)N(C)C(=O)Cc1csc2ccccc12 (centres unmarked) [I-192], the “Growth controlling degree (%) Velvetleaf” value was 0%.

What follows are compounds tested on velvetleaf (assay: Test Example 1: foliage treatment, upland pot test). Details: active ingredient 500 g/ha, observed 18th to 23rd day, 0 = non-treated, 100 = complete kill.
Assay type: in vivo, Abutilon theophrasti MEDIC.
For CC(C)C(c1cnccc1C(F)(F)F)N(C)C(=O)Cc1csc2ccccc12 (centres unmarked) [I-192], the “Growth controlling degree (%) Velvetleaf” value was 70%.

These compounds were tested on barnyardgrass (assay: Test Example 3: paddy pot test, application under submerged conditions). Details: active ingredient 500 g/ha; submerged application at 0.5 leaf stage; visually observed 14 days after application; 0 = non-treated, 100 = complete kill.
Assay type: in vivo, Echinochloa crus-galli L.
In short: as §2
For CC(C)C(c1cnccc1C(F)(F)F)N(C)C(=O)Cc1csc2ccccc12 (centres unmarked) [I-192], the “Growth controlling degree (%) Barnyardgrass” value was 100%.

What follows are compounds tested on wheat (assay: Test Example 2: soil surface treatment, upland pot test). Details: active ingredient 500 g/ha, observed 20th to 28th day.
Assay type: in vivo, Triticum spp.
In short: as §3
CC(C)C(c1cnccc1C(F)(F)F)N(C)C(=O)Cc1csc2ccccc12 (centres unmarked) [I-192] was tested, and the “Growth controlling degree (%) wheat” value was 0%.

The compounds below were run on rice (assay: Test Example 1: foliage treatment, upland pot test). Details: crop, active ingredient 500 g/ha, observed 18th to 23rd day, 0 = non-treated, 100 = complete kill.
Assay type: in vivo, Oryza sativa L.
In short: as §1
CC(C)C(c1cnccc1C(F)(F)F)N(C)C(=O)Cc1csc2ccccc12 (centres unmarked) [I-192] was tested, and the “Growth controlling degree (%) Rice” value was 10%.
